Laboratory results reported in paper PMC4730251, “Cloning, Characterization and Expression Pattern Analysis of a Cytosolic Copper/Zinc Superoxide Dismutase (SaCSD1) in a Highly Salt Tolerant Mangrove (Sonneratia alba)” (International Journal of Molecular Sciences, 2015).

Target: T1, SaCSD1 (Sonneratia alba, UniProt A0A0U1X631)
T1 construct: gene SOD1
T1 sequence (A0A0U1X631 1-152): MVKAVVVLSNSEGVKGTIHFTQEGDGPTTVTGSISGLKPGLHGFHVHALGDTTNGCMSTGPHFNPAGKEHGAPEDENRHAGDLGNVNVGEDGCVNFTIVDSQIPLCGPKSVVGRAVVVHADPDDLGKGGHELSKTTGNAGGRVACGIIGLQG
Assay: SOD activity assay kit (WST-1 method)
Assay type: biochemical

Q: `[O]O` [superoxide] was tested. Which “SOD activity assay kit (WST-1 method)” value did it give?
A: Superoxide dismutase activity assay kit (WST-1 method) was used to detect the SOD activity
